Experimental data published in ChEMBL document CHEMBL1201862, “PubChem BioAssay data set” (2004).
The source made the active and inactive calls.

Key:
Cytochrome P450 2C9 [1] = molecular target: T1, Cytochrome P450 2C9 (Homo sapiens, UniProt P11712)
Cytochrome P450 1A2 = molecular target: T2, Cytochrome P450 1A2 (Homo sapiens, UniProt P05177);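 further: PubChem cytochrome P450 panel assay, CYP1A2 panel member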
T2 sequence (P05177 whole entry): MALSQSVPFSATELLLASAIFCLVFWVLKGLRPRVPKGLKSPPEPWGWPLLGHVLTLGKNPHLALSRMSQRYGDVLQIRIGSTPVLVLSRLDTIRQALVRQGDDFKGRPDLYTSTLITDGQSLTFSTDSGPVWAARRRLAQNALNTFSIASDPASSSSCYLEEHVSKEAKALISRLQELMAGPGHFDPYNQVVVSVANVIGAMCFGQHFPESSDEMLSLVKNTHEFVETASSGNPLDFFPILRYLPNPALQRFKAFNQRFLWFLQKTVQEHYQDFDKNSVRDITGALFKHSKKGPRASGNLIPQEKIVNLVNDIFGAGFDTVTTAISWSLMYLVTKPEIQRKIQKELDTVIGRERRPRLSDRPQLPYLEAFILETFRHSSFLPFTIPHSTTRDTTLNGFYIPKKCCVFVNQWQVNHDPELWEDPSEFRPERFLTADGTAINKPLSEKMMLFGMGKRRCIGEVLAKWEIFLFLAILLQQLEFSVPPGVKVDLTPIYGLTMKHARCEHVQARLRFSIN

H9c2 = experiment: cells; assay type: functional, cell-based; details: Rattus norvegicus, H9c2, Myocardium;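 further: confirmatory concentration-response retest of ultra-high-throughput screening hits for modulation of myocardial damage; cell death induced by hydrogen peroxide oxidative stress; compound pretreatment for 60 min then peroxide exposure for 2 h; potency is for protecting the cells against peroxide damage rather than for killing them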
Cytochrome P450 2C9 [2] = molecular target: T1, Cytochrome P450 2C9; remark: listed apart in the source
Cytochrome P450 2D6 = Cytochrome P450 2D6 (Homo sapiens, UniProt P10635);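 further: CYP2D6 member of a cytochrome P450 panel assay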
Chain of Cytochrome P450 2D6 (P10635 whole entry): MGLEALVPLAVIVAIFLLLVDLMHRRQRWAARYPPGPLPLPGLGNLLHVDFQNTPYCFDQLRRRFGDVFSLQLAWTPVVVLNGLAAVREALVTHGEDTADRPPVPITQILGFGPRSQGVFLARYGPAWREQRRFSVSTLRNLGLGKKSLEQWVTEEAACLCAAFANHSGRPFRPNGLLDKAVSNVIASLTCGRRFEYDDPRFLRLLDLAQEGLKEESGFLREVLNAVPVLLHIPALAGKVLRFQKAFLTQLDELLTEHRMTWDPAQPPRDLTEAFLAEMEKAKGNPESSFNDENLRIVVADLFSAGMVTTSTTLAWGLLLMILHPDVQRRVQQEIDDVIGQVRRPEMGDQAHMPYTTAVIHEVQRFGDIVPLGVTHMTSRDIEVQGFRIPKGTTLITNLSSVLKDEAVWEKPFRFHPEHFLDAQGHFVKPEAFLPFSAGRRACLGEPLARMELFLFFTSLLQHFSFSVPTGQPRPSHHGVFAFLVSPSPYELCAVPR

[3] = cytotoxicity toward NIH3T3 fibroblasts, dose response, counter-screen, cell-based, ATP luminescence, mouse fibroblasts (AID 2010); assay type: functional;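 further: cells exposed to compound for about 90 hours before reading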
Nonstructural protein 1 = Nonstructural protein 1 (Influenza A virus, UniProt Q194T2); assay type: functional, Influenza A virus (A/California/07/2009(H1N1))
Chain of Nonstructural protein 1 (Q194T2 whole entry): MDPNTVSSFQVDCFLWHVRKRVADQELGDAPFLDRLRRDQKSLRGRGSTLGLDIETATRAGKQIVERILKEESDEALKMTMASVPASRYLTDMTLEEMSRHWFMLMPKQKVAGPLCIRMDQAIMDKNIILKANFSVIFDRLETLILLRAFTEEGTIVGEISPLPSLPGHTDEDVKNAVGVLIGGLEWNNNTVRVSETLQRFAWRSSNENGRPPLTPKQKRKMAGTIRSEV

[4] = growth suppression of beta-catenin-knockout colon cells, dose response, cell-based, HCT116, human colon tumor (AID 1045); assay type: functional;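 further: HCT116 colon tumor cells with beta catenin knocked out; cells exposed to compound for 60 hours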
[5] = Luminescence Cell-Based Dose Retest to Confirm Inhibitors of Cancer Stem Cells. [Related pubchem assays (depositor defined):AID2717, AID2721]; assay type: functional; details: Homo sapiens
[6] = inhibitors of intracellular T. cruzi replication, confirmation, NIH3T3 host cells, beta-gal luminescence (AID 2044); assay type: functional, cell-based;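 further: intracellular parasites grown in NIH/3T3 mouse fibroblasts as host cells; luminescent beta-galactosidase reporter signal from transgenic T. cruzi replicating inside host cells; inhibitors lower the luminescence signal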
[7] = growth suppression of PTEN-null colon cells, dose response, cell-based, HCT116 PTEN knockout (AID 1047); assay type: functional;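 further: HCT116 colon tumor cells with PTEN knocked out; cells exposed to compound for 60 hours before readout; potency for loss of cell viability measured by luminescence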
Fatty acid synthase [8] = molecular target: T3, Fatty acid synthase (Homo sapiens, UniProt P49327); experiment: FAS thioesterase domain inhibitors, dose response, biochemical, endpoint fluorescence intensity, uHTS hits (AID 624327); assay type: functional;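 further: fluorescence from hydrolysis of an O-methyl fluorescein acyl ester substrate by the enzyme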
T3 sequence (P49327 whole entry, the tested form may be a part): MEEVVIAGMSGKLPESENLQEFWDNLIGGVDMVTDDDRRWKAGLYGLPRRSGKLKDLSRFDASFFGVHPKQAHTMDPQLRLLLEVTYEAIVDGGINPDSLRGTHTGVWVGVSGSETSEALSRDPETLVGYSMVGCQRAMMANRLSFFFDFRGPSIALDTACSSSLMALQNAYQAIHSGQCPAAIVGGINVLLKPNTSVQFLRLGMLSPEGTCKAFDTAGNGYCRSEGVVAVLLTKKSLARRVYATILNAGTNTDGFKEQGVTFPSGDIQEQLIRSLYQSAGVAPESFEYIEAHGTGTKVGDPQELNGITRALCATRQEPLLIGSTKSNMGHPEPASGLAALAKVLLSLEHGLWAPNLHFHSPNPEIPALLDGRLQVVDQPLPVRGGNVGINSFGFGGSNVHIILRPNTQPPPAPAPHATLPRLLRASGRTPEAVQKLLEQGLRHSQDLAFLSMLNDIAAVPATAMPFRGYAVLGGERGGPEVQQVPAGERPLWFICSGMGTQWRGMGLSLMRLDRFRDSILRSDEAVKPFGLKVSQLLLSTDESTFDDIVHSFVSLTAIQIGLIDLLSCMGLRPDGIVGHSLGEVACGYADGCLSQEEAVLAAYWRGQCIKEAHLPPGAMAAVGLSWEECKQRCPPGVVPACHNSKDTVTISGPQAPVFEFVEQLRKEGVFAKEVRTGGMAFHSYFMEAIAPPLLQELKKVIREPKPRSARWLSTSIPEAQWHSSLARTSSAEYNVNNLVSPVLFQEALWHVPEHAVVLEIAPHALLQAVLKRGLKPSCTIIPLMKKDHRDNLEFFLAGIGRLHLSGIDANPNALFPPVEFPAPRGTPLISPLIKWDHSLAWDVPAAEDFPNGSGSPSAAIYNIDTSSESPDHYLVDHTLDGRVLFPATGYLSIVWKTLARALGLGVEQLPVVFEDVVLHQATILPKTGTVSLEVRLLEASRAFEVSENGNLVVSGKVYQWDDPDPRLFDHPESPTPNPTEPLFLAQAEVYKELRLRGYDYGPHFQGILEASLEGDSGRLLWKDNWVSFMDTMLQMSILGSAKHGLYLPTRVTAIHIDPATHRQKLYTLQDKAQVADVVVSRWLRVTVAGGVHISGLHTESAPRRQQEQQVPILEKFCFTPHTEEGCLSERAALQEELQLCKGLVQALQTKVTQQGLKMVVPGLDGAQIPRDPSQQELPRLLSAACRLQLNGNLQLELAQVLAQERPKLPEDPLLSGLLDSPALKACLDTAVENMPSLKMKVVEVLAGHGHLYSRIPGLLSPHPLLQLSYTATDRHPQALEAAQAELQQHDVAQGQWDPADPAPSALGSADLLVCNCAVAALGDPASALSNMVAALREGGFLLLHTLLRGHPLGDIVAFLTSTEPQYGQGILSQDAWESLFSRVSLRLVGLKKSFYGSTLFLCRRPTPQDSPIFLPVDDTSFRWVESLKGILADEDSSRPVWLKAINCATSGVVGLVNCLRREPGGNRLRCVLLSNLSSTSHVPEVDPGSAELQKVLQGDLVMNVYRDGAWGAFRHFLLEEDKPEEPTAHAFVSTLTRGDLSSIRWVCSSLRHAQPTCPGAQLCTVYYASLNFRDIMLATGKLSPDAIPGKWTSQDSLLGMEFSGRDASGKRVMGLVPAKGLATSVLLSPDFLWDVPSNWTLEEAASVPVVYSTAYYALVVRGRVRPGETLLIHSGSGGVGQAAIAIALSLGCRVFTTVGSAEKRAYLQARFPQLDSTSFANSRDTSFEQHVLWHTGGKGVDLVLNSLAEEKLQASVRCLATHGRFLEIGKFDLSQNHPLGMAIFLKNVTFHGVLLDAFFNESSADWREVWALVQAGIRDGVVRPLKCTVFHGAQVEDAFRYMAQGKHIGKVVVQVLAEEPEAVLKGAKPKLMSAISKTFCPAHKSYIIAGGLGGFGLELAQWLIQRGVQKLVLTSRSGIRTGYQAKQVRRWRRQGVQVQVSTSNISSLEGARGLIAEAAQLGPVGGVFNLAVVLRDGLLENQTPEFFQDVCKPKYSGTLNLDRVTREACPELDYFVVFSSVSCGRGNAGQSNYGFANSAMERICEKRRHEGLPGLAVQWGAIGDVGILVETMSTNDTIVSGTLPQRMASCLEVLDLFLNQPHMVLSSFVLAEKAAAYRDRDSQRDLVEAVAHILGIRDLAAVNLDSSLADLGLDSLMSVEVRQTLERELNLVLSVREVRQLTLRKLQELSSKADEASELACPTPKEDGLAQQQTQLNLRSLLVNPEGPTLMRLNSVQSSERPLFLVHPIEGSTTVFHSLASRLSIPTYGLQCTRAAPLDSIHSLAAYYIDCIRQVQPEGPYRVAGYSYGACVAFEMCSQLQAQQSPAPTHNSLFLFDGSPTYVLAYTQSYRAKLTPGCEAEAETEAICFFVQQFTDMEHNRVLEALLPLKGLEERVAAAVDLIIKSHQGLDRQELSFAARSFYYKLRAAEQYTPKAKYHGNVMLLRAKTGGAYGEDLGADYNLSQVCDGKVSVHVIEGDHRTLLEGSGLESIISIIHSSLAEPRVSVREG

Fatty acid synthase [9] = molecular target: T3, Fatty acid synthase; experiment: FAS thioesterase domain inhibitors, dose response, biochemical, kinetic fluorescence intensity (AID 624326); assay type: functional;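 further: rate of fluorescence rise from hydrolysis of a fluorogenic O-methyl fluorescein ester substrate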
[10] = cytotoxicity in HEK-293T cells, dose response, cytotoxicity control for TCR NF-kB inhibitor project, luminescence, T-cell screen hits (AID 489026); assay type: functional, cell-based;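 further: cells exposed to compound about 14 hours before the viability readout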
INS1 = experiment: beta cell apoptosis inhibitors, cytokine rescue, dose response, luminescence, retest (AID 449756); assay type: functional, cell-based; details: Rattus norvegicus;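 further: cell death triggered by IL-1 beta plus TNF-alpha plus IFN-gamma mixture; protective hits raise ATP signal compared with cytokine alone wells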
[11] = molecular target: T4, Sentrin-specific protease 7 (Homo sapiens, UniProt Q9BQF6); assay type: functional;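 further: Luminescence-based dose-response confirmation of ultra-high-throughput screening hits, measuring inhibition of SENP7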
T4 sequence (Q9BQF6 whole entry): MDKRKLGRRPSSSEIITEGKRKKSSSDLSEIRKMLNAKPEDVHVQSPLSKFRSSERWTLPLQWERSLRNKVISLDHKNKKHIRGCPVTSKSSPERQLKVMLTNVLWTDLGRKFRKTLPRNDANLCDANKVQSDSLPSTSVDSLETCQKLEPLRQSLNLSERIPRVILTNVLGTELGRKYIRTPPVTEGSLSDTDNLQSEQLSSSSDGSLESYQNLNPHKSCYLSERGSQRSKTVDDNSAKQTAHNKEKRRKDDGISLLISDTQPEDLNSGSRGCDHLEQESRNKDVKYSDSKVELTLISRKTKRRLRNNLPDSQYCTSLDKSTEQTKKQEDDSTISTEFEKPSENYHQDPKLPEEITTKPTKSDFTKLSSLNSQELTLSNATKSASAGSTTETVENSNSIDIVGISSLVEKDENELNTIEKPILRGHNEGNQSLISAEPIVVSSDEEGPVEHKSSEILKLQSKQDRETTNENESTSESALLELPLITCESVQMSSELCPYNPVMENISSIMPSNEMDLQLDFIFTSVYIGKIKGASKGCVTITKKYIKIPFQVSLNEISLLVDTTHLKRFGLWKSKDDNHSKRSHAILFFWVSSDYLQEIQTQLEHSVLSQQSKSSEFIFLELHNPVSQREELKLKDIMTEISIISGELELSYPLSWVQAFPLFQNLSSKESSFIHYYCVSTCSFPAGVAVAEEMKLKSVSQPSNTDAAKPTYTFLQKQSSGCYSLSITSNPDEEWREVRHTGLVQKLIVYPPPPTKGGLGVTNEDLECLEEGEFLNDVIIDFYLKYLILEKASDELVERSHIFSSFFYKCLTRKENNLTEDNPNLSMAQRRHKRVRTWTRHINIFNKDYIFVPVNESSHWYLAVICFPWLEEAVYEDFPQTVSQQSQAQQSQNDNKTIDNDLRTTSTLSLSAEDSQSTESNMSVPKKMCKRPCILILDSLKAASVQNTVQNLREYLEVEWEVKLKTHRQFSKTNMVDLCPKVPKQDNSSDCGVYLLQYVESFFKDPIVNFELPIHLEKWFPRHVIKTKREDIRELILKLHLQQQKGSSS

[12] = molecular target: T5, Sentrin-specific protease 8 (Homo sapiens, UniProt Q96LD8); assay type: functional;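 further: luminescence read-out of SENP8 inhibition, dose-response confirmation following an ultra-high-throughput screen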
T5 sequence (Q96LD8 whole entry): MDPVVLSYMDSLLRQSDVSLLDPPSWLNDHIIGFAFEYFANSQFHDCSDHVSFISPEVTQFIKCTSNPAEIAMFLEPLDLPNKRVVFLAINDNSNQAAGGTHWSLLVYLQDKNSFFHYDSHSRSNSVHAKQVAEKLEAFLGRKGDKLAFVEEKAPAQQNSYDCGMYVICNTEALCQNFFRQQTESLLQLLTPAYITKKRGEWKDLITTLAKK

[13] = molecular target: T6, Sentrin-specific protease 6 (Homo sapiens, UniProt Q9GZR1); assay type: functional;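 further: Luminescence-based dose-response confirmatory assay of SENP6 inhibition, following up an ultra-high-throughput screen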
T6 sequence (Q9GZR1 whole entry): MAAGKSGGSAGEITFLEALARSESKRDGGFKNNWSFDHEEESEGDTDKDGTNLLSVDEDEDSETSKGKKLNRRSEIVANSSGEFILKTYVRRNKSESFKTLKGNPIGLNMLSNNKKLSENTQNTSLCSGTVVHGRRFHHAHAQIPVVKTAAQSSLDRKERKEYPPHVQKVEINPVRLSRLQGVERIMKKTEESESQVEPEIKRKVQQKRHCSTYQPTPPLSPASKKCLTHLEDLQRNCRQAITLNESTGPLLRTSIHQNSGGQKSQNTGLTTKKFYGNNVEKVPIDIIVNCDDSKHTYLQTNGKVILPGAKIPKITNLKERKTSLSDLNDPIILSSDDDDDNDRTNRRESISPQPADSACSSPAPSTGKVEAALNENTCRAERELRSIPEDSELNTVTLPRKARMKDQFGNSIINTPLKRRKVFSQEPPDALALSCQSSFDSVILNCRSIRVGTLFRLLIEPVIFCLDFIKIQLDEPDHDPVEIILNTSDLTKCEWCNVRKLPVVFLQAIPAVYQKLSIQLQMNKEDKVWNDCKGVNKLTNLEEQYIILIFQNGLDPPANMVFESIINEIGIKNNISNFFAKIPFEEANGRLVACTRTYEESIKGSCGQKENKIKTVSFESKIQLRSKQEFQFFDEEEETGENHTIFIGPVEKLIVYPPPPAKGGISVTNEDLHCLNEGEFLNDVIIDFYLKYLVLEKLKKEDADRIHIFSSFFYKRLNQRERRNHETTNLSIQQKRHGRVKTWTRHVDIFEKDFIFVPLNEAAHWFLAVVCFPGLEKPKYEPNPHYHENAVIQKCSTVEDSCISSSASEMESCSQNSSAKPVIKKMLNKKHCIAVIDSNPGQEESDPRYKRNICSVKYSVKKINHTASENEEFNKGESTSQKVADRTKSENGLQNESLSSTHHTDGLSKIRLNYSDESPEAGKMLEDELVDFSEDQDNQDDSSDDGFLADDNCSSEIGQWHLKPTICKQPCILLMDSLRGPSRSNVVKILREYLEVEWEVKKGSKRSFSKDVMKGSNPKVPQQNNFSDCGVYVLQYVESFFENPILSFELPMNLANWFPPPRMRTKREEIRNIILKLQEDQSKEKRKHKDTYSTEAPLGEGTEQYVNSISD

Caspase-3 = molecular target: T7, Caspase-3 (Homo sapiens, UniProt P42574); assay type: functional;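 further: Dose-response selectivity test against caspase-3 for candidate inhibitors of sentrin-specific proteases (SENPs)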
T7 sequence (P42574 whole entry): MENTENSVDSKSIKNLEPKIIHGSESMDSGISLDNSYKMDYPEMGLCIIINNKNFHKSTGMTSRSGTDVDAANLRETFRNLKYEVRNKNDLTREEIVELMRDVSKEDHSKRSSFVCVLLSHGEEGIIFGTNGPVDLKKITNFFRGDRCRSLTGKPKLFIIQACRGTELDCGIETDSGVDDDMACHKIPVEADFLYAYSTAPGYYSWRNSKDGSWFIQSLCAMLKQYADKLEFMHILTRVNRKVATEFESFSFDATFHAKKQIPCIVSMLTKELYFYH

[14] = molecular target: Induced myeloid leukemia cell differentiation protein Mcl-1 (Homo sapiens, UniProt Q07820); assay type: functional
Chain of Induced myeloid leukemia cell differentiation protein Mcl-1 (Q07820 whole entry): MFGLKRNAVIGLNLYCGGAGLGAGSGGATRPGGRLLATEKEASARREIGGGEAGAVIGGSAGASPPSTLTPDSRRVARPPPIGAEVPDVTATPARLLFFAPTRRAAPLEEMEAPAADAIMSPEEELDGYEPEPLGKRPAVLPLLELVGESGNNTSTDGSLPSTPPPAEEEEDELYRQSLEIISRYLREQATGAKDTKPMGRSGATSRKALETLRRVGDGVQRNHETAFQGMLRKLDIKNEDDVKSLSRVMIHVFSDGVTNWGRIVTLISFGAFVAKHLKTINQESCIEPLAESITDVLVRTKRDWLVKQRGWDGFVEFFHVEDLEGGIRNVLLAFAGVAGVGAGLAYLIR

Cytochrome P450 3A4 = Cytochrome P450 3A4 (Homo sapiens, UniProt P08684);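 further: CYP3A4 tested as one member of a cytochrome P450 panel screen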
Chain of Cytochrome P450 3A4 (P08684 whole entry): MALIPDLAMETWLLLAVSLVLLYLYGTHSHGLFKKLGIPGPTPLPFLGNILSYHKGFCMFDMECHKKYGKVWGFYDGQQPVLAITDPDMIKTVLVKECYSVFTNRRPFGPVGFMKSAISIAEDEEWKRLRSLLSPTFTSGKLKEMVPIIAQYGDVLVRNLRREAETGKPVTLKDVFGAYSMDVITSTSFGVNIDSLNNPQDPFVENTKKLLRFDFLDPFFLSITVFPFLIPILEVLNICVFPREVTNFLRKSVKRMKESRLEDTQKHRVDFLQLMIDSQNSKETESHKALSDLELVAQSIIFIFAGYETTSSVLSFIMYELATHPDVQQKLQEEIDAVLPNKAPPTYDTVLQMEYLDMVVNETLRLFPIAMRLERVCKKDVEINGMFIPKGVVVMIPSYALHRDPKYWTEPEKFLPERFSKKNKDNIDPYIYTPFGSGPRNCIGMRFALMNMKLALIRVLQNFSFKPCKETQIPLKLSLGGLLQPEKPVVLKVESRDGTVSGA

Cytochrome P450 2C19 = Cytochrome P450 2C19 (Homo sapiens, UniProt P33261); experiment: Cytochrome panel assay with activity outcomes. Panel member name: p450-cyp2c19 Compounds with AC50 equal or less than 10 uM are considered active; assay type: functional
Chain of Cytochrome P450 2C19 (P33261 whole entry): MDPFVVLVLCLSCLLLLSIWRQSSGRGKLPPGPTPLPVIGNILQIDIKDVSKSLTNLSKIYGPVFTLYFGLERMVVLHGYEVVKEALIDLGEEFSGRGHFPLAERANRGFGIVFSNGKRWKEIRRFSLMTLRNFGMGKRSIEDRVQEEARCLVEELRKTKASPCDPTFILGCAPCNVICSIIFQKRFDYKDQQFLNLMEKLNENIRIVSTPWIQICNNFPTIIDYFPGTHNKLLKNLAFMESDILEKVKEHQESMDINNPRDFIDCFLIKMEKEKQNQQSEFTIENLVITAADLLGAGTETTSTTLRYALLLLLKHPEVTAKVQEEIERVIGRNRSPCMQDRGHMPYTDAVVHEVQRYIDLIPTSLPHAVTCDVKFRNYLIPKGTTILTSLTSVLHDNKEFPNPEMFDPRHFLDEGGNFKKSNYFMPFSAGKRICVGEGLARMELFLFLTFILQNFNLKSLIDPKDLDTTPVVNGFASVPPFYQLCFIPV

T1 sequence (P11712 whole entry): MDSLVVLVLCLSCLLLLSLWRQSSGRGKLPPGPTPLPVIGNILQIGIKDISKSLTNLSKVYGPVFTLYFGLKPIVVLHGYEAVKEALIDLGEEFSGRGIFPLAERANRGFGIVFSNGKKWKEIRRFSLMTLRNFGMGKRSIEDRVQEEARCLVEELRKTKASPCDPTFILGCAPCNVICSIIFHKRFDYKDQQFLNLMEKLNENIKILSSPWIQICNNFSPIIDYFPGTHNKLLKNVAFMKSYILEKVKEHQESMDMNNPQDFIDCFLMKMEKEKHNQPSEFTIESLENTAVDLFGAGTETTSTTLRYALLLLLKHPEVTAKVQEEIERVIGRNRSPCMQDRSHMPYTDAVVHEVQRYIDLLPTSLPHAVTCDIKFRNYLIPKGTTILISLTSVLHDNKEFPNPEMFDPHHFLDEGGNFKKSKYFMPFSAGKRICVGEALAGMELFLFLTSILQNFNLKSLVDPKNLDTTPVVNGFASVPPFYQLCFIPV

Cc1c(C(=O)c2ccc3ccccc3c2)c2cccc3c2n1[C@H](CN1CCOCC1)CO3
AC50 (Cytochrome P450 2C9 [1]): inconclusive

CCCc1cc2c(cc1NC(=O)c1ccc(Br)cc1)OCO2
AC50 (Cytochrome P450 1A2): 1.26 µM (inconclusive) | IC50 (H9c2): > 79 µM (inactive) | AC50 (Cytochrome P450 2C9 [2]): 2.82 µM (inconclusive) | AC50 (Cytochrome P450 2D6): 0.708 µM (inconclusive)

Cc1cccc(C(=O)Nc2nnc(-c3ccc(C(C)(C)C)cc3)s2)c1
AC50 (Cytochrome P450 2C9 [1]): inconclusive

Cc1cnc(CNc2ncnc3ccc(-c4ccc(N(C)C)cc4)cc23)cn1
AC50 (Cytochrome P450 2D6): 25.1 µM (inconclusive)

N#C/C(=C/c1cn(-c2ccccc2)nc1-c1cccc(OCc2ccc(F)cc2)c1)C(=O)NCCCn1ccnc1
EC50 [3]: > 30 µM (not active) | IC50 (Nonstructural protein 1): 81.1 µM (active) | EC50 [4]: 21.7 µM (active) | AC50 [5]: 2.5 µM (active) | EC50 [6]: 1.46 µM (active) | EC50 [7]: 23.4 µM (active)

O=C(c1csnn1)N1CCC2(CCCN(c3ccccc3)C2)CC1
AC50 (Cytochrome P450 2D6): 20 µM (inconclusive)

COc1ccc(C(=O)c2cnc3ccccc3c2-c2ccccc2)cc1
AC50 (Cytochrome P450 2C9 [2]): 7.08 µM (inconclusive) | AC50 (Cytochrome P450 2D6): 31.6 µM (inconclusive)

COc1ccc2c(c1)C(=O)N1[C@H]3c4cc(Br)ccc4OC[C@@H]3[C@H](c3ccccc3)[C@]1(C)C(=O)N2
IC50 (Fatty acid synthase [8]): 17.1 µM (active) | IC50 (Fatty acid synthase [9]): 18 µM (active) | IC50 [10]: > 80 µM (inactive)

CC(C)CO/N=C1/[C@H]2O[C@@H]2[C@@H](O)[C@H]2[C@H]1CCn1c(=O)n(-c3ccccc3)c(=O)n12
AC50 (Cytochrome P450 2C9 [1]): inconclusive

Cc1cc2cc(CN(Cc3cccs3)S(=O)(=O)c3ccc4c(c3)OCCO4)c(O)nc2cc1C
EC50 [4]: 30.2 µM (active) | EC50 [7]: 33.8 µM (active)

CN(C)S(=O)(=O)c1ccc(Nc2nc(C3CC3)nc3c2nnn3Cc2ccccc2Cl)cc1
AC50 (INS1): 4.71 µM (active) | IC50 [10]: > 80 µM (inactive)

CN(C)c1ccc(NC(=O)CSc2nc(N)c(C(=O)Nc3ccc(N(C)C)cc3)s2)cc1
AC50 (Cytochrome P450 2D6): 17.8 µM (inconclusive)

Cc1ccc(O)c(NC(=O)c2cc(-c3ccco3)on2)c1
IC50 [11]: 8.57 µM (active) | IC50 [12]: > 100 µM (inactive) | IC50 [10]: > 80 µM (inactive) | IC50 [13]: > 100 µM (inactive) | IC50 (Caspase-3): 21.3 µM (active)

CCOC(=O)C(C(=O)OCC)C(Nc1cccc(Br)c1)c1ccccc1 (centres undefined)
EC50 [4]: 147 µM (active) | EC50 [7]: 115 µM (active)

O=C(c1cccc(F)c1)N1CCC2(CCCN(c3ncccn3)C2)CC1
AC50 (Cytochrome P450 1A2): 25.1 µM (inconclusive) | AC50 (Cytochrome P450 2D6): 31.6 µM (inconclusive)

Cc1cc(C)cc(NS(=O)(=O)c2ccc3[nH]cc(C(=O)NCc4ccco4)c(=O)c3c2)c1
EC50 [4]: 1.78 µM (active) | AC50 [5]: 0.428 µM (active) | EC50 [7]: 2.68 µM (active)

COc1ccc(-n2c(=O)c(-c3cn(C)c4ccccc34)nc3cncnc32)cc1
AC50 (Cytochrome P450 2C9 [1]): inconclusive

CCOC(=O)NNc1ccc2nonc2c1[N+](=O)[O-]
IC50 [11]: 10.8 µM (active) | IC50 [12]: 4.85 µM (active) | IC50 [14]: 42.2 µM (active) | IC50 [13]: 4.96 µM (active) | IC50 (Caspase-3): 8.38 µM (active)

N#Cc1cccc(-c2cc(NCc3cccs3)ncn2)c1
AC50 (Cytochrome P450 3A4): 1.58 µM (inconclusive) | AC50 (Cytochrome P450 2D6): 20 µM (inconclusive)

CC(C)OCCCN1C(=O)c2[nH]nc(-c3ccccc3O)c2C1c1cccc(Cl)c1 (centres undefined)
EC50 [4]: 27.6 µM (active) | EC50 [7]: 25.2 µM (active)

Cc1cc(C)n(CCc2nc(-c3ccc(-c4ccccc4)cc3)cs2)n1
IC50 [11]: 4.98 µM (active) | IC50 [12]: 59.3 µM (active) | IC50 [13]: 20.5 µM (active) | IC50 (Caspase-3): 23.9 µM (active)

Br.CCCCN1C2=NCCCN2c2ccccc21
AC50 (Cytochrome P450 2C19): inconclusive | AC50 (Cytochrome P450 2C9 [1]): inconclusive

Oc1nc(S)nc(SCc2c(Cl)c(Cl)c(Cl)c(Cl)c2Cl)n1
AC50 (Cytochrome P450 2D6): 3.98 µM (inconclusive)
